Consider eight molecules from patent US6492427B2, “Methods for treating multiple sclerosis” (priority 1998, dated 2002).

Entries after “also recorded” stand apart in the source; their conditions may differ. *1 amine or outer side, *2 acyl side, *3 side chain or, on linkers, in order; H or OH if unused. Where a SMILES comes first, the peptide text is derived from it. Bridges are numbered along the chain shown (N, C = ends). Roman numbers before positions name the chains, in order. [ ]: non-standard residue; d: D form. Actinocin(9to1) = Cc1c2oc3c(C)ccc(C(=O)[*:1])c3nc-2c(C(=O)[*:2])c(N)c1=O; NMeV = CN[C@H](C(=O)O)C(C)C; Sar = CNCC(=O)O

Common to all, as to format: cell-based, rat
The subject of one test is oligodendroglial cells. The test can be described thus: Nuclear integrity assay: counts of intact nuclei (Zap-oglobin lysis) after insulin and IGF-I withdrawal. To be noted: for numbers of intact nuclei for IGF-I and insulin withdrawn cells: alone in BM, actinomycin 1, 2.5, 5 μg/ml, cycloheximide 1, 5, 10, 50 μg/ml; for counts of intact nuclei compared to BM: alone in BM at 10^−5, 10^−7 and 10^−9 M. The procedure:
In order to examine insulin and IGF-I dependent survival of the cells of the oligodendroglial lineage, cells were trophically deprived for a period of 24 hours at 16 DIV.
Cells were trophically withdrawn by replacing the media with a serum free, chemically-defined base media (BM) lacking insulin and IGF-I (Bottenstein et al., 1988). The base media consisited of DMEM supplemented with penicillin (50 IU/ml); streptomycin (50 μg/ml); 1 mM sodium pyruvate; 50 μg/ml transferrin; 0.005 μg/ml sodium selenite; 16 μg/ml putrescine; 0.006 μg/ml progesterone and 0.1 mg/ml bovine serum albumin. All the cells were washed with BM twice before exposing them to individual treatment conditions. Control cells were washed and placed in BM supplemented with 2.5 ng/ml IGF-I and 5 μg/ml insulin to form the insulin media (IM).
Cell survival in the cultures was assessed according to the method of (Soto and Sonnenschein, 1985). After washing and treatment in BM, BM-D9, IM and IM-D9 for 24 h, cells were harvested, centrifuged at 500 rpm for 5 min and the supernatant removed. Pelleted cells were then lysed with 200 μl of 10% Zap-oglobin (Coulter Electronics, FL, USA). The lysing agent is a detergent containing solution that lyses the plasma membrane but leaves the nuclei intact. The lysed solution was collected and vortexed. A small volume (10 μl) of the solution was removed and intact nuclei were counted using a haemocytometer. To be counted, nuclei had to show a completely intact smooth outer border. Counts of intact nuclei were pooled for three or four experiments (a total of 15-20 wells were used for each treatment condition). each treatment condition).
OLs at 16 DIV were exposed to the different drug treatment conditions for 24 h, following which, the nuclear integrity assay was performed. On the day of the treatment, the cells growing in Nunc 24 well plates were washed twice with base media. Each treatment well received 50 μl of the appropriate drug solution and the total volume in the well was made up to 500 μl with either BM or IM.
Nuclear counts were obtained from quadruplicate wells per treatment condition and the experiment was repeated twice. OLs were exposed to the following treatment conditions: 1) IM, 2) BM, 3) BM-D9, 4) (−)-Desmethyldeprenyl (BM-Ds9), 5) IM-D9 and 6) IM +10^−9 M (−)-Desmethyldeprenyl (IM-Ds9).
The treatment conditions with the three general cytochrome P450 blockers were: 1) BM+Proadifen (2.5, 10, 25 μM), 2) BM-D9+Proadifen (2.5, 10, 25 μM), 3) BM-Ds9+Proadifen (2.5, 10, 25 μM), 4) BM+Metapyrone (50 μM), 5) BM-D9+Metapyrone (50 μM), 6) BM-Ds9+Metapyrone (50 μM), 7) BM+Piperonyl butoxide (100 μM), 5) BM-D9+Piperonyl butoxide (100 μM), 6) BM-Ds9+Piperonyl butoxide (100 μM).
OLs at 16 DIV were washed twice with base media and exposed either to actinomycin, a transcriptional blocker or cycloheximide, a translational blocker for 24 h. […] Actinomycin and cycloheximide were either used with base media alone or in combination with 10^−9 M (−)-desmethyldeprenyl. Each treatment well received 50 μl of the drug solution and the total volume of the well was made up to 500 μl with base media.
Counts of intact nuclei, obtained from quadruplicate wells per treatment condition were used to quantitate the effects of the transcriptional and translational blockers. Each experiment was repeated twice for experimental density series-II.

Test [1] relates to mitochondrial membrane potential (ΔψM) of oligodendroglial cells. The test can be described thus: CMTMR estimation of mitochondrial membrane potential by confocal microscopy. Also noted: ΔΨM (18 h): key to the marks not given beside the values. To be noted: for increases in ΔψM induced by (−)-deprenyl on OL mitochondria: proadifen 10 μM, metyapone 50 μM or piperonyl butoxide 100 μM with 10^−9 M (−)-deprenyl in BM; for capacity of (−)-deprenyl and (−)-desmethyldeprenyl to maintain ΔψM in OL mitochondria: 10^−5 M with 10^−9 M (−)-deprenyl or (−)-desmethyldeprenyl in BM. As for the experimental part: The ΔψM was assessed by the addition of a lipophilic, potentiometric dye, chloromethyl-tetramethylrhodamine methyl ester (CMTMR, Mitotracker Orange™ Molecular Probes, Eugene, Oreg.). The CMTMR dye reacts with the thiol groups on proteins and peptides to form aldehyde fixable conjugates. Entry of the negatively charged mitochondrial matrix compartment is proportional to the difference in the membrane potential. Therefore, the CMTMR fluorescence labels the mitochondrial membrane potential generated due to the negativity difference between the mitochondrial matrix and the outside of the mitochondria. Upon cell fixation, CMTMR remains in the mitochondria and is not washed out unlike other mitochondrial potentiometric dyes like rhodamine123.
Oligodendrocytes at 16 DIV were placed in trophically deprived BM for 18 h or treated with BM-D9 or BM-Ds9. […] The cells were incubated in CMTMR at 37° C. for 15 min. The cells were then fixed with 4% cold paraformaldehyde on ice for 30 min and washed twice with 0.1M PBS. Consequently, the coverslips were mounted on glass slides with Aquamount (Gurr, England).
Individual mitochondria labeled with CMTMR were resolved by confocal microscopy. A Leica true confocal scanning (TCS) 4D microscope coupled to an argon-krypton laser (Omnichrome, USA) was used for cell imaging. A pinhole size of 20 with an excitation filter wavelength of 568 nm and an emission filter wavelength of 590 nm was used to image the CMTMR labeled mitochondria. Each field of the coverslip was imaged using an oil-immersion, 100 X, 1.3 N.A. objective at 512 by 512 by 8 bits per pixel resolution, background offset of −1 and line averaged 32 times in bi-directional line scan mode. Care was taken not to exceed the dynamic range of the gray value display. The confocal images obtained were saved on an optical drive in a tagged image file format (TIFF).
Fluorescence intensity of individual mitochondria was measured using the Metamorph™ program. Metamorph™ compiles measurements of objects in a 8-bit image ranging from gray values 0 (background) and 255. In order to obtain fluorescence intensity measures, a rectangular region tool of 2×2 pixels was used to measure two randomly selected areas within each mitochondrion. A total of ten mitochondria obtained equally from all the regions of each cell were measured within each image. About 20 images were analyzed for each treatment condition thereby giving a sum of about 400 mitochondrial fluorescence intensity measures. The raw values were then further graphed and analyzed with the Microcal Origin 4.1 program. Frequency count was performed on the data, which classified the data in ordered bins. A frequency distribution was obtained with lower bin value set at 0 and higher bin value set at 260.

Test [2] relates to MBP, PLP, GC and CNPase-I. The test can be described thus: Western blot of PROL and OL marker proteins. The note with it: BM + 10^−9 M, 18 h. (In western blotting, separated proteins are transferred to a membrane and probed.)

`C#CCN(C)C(C)Cc1ccccc1` (single isomer, unassigned; (+)) [(+)-deprenyl]: the “concentration-survival relationship, numbers of intact nuclei” value in the test with oligodendroglial cells (BM with 10^−5, 10^−7 and 10^−9 M, 24 h) is “did not alter the numbers of intact nuclei from the values found for BM”.

For the molecule `C#CCN[C@H](C)Cc1ccccc1` [(−)-desmethyldeprenyl], the “mitochondrial CMTMR fluorescence distributions (ΔψM) in ASTs, PROLs and OLs” value in test [1] (BM + 10^−9 M, 18 h) is given as “not significantly different to those found for IM; also recorded: prevented the decrease in ΔψM”. Further, the “ΔΨM (18 h)” value in test [1] (OL, relative to control (IM)) is “++++”. Moreover, in test [2], the “band densities for MBP, CNP-ase I and PLP compared to IM” value is given as “exceed those for IM”; the “immunodensity of marker proteins (MBP, PLP, GC, CNPase-I) compared to BM” value is “marked increase in immunodensity compared to BM”. For the same molecule, the “increase in counts of intact nuclei compared to those for BM” value with oligodendroglial cells (BM + 10^−9 M, 24 h, metabolite experiments (FIG. 11)) is given as 197%. In addition, the “numbers of intact nuclei relative to IM” value in the test on oligodendroglial cells (IM + 10^−9 M, 24 h, metabolite experiments (FIG. 11)) was 103%. Also, in the test with oligodendroglial cells (OL cell survival, relative to control (IM)), the “Survival (24 h)” value is “++++”.

Regarding `CCCC(C(=O)OCCN(CC)CC)(c1ccccc1)c1ccccc1` [proadifen], the “increases in ΔψM induced by (−)-deprenyl on OL mitochondria” value in test [1] (18 h) is given as “blocked the increases in ΔψM induced by (−)-deprenyl”. In addition, the “number of intact nuclei when compared to IM” value in the test with oligodendroglial cells (proadifen 2.5 μM with 10^−9 M (−)-deprenyl in BM, 24 h) came to 144%; with oligodendroglial cells (proadifen 10 μM with 10^−9 M (−)-deprenyl in BM, 24 h) it was 109%; with oligodendroglial cells (proadifen 25 μM with 10^−9 M (−)-deprenyl in BM, 24 h), 91%. In the test on oligodendroglial cells (proadifen 2.5, 10, 25 μM alone in BM, 24 h), the “intact nuclei values for BM only” value is listed as “did alter the values for BM only”. Besides, the “increase in intact nuclei induced by 10^−9 M (−)-desmethyldeprenyl” value in the test on oligodendroglial cells (proadifen 2.5, 10, 25 μM with 10^−9 M (−)-desmethyldeprenyl in BM, 24 h) is listed as “did not reduce the increase in intact nuclei”.

As for `C[C@@H]1C[C@@H]([C@H](O)CC2CC(=O)NC(=O)C2)C(=O)[C@@H](C)C1` [cycloheximide], the “numbers of intact nuclei for IGF-I and insulin withdrawn cells” value with oligodendroglial cells (24 h) is reported as “Neither agent altered the numbers of intact nuclei”.

Turning to `CC(C)(C(=O)c1cccnc1)c1cccnc1` [metapyrone, 2-methyl-1,2-di(3-pyridyl)-1-propanone], in test [1] (18 h), the “increases in ΔψM induced by (−)-deprenyl on OL mitochondria” value was “blocked the increases in ΔψM induced by (−)-deprenyl”.

As for `CN[C@@H](C)Cc1ccccc1` [(−)-methamphetamine], in test [1] (18 h), the “capacity of (−)-deprenyl and (−)-desmethyldeprenyl to maintain ΔψM in OL mitochondria” value is “reduce the capacity of (−)-deprenyl and (−)-desmethyldeprenyl to maintain ΔψM”. Moreover, the “increase in numbers of intact nuclei induced by (−)-deprenyl” value with oligodendroglial cells (10^−5, 10^−7, 10^−9 M in combination with 10^−9 M (−)-deprenyl in BM, 24 h) is given as “significantly reduced the increase in numbers of intact nuclei induced by (−)-deprenyl in a graded concentration dependent manner”. Further, the “counts of intact nuclei compared to BM” value in the test on oligodendroglial cells (24 h) is recorded as “did alter the counts of intact nuclei”.

Take `CC(N)Cc1ccccc1` (single isomer, unassigned; (-)) [(−)-amphetamine]: the “capacity of (−)-deprenyl and (−)-desmethyldeprenyl to maintain ΔψM in OL mitochondria” value in test [1] (18 h) is “reduce the capacity of (−)-deprenyl and (−)-desmethyldeprenyl to maintain ΔψM”. The “capacity of (−)-deprenyl to increase survival of oligodendroglial cells” value in the test on oligodendroglial cells (10^−3, 10^−5, 10^−7, 10^−9 M in combination with 10^−9 M (−)-deprenyl in BM, 24 h) is reported as “markedly reduced the capacity of (−)-deprenyl to increase the survival”. Also, the “capacity of 10^−9 M (−)-desmethyldeprenyl to increase survival of oligodendroglial cells” value with oligodendroglial cells (10^−5 M with 10^−9 M (−)-desmethyldeprenyl in BM, 24 h) was “completely eliminated the capacity of 10^−9 M (−)-desmethyldeprenyl to increase the survival”. In the test with oligodendroglial cells (24 h), the “counts of intact nuclei compared to BM” value is “did alter the counts of intact nuclei”.

As to `Cc1c2oc3c(C)ccc(C(=O)N[C@@H]4C(=O)N[C@H](C(C)C)C(=O)N5CCC[C@H]5C(=O)N(C)CC(=O)N(C)[C@@H](C(C)C)C(=O)O[C@@H]4C)c3nc-2c(C(=O)N[C@@H]2C(=O)N[C@H](C(C)C)C(=O)N3CCC[C@H]3C(=O)N(C)CC(=O)N(C)[C@@H](C(C)C)C(=O)O[C@@H]2C)c(N)c1=O` [actinomycin] (I: T[dV]P[Sar][NMeV] / II: T[dV]P[Sar][NMeV]; ester I:1-I:C, II:1-II:C; linker I:N-II:N via Actinocin(9to1)), in the test with oligodendroglial cells (24 h), the “numbers of intact nuclei for IGF-I and insulin withdrawn cells” value is given as “Neither agent altered the numbers of intact nuclei”.
